Measured values reported in patent US10301305B2 (priority 2014, dated 2019).

Key:
Format in all cases: biochemical
[1] = molecular target: S. aureus DltA (Staphylococcus aureus (strain NCTC 8325 / PS 47), UniProt Q2FZW6); test: in vitro DltA activity assay (luminescence), S. aureus DltA; conditions: recombinant DltA, 30 min pre-incubation, 0.5 mM D-Alanine, 0.5-5 μM ATP; read-out: S. aureus DltA IC50
Description: (§1) The effect of the compounds of the invention on DltA enzymes has been based on the measure of their inhibition of DltA activity in vitro. To this end, recombinant proteins DltA were expressed and purified after cloning of the genes of S. aureus, E. faecalis, E. faecium and S. agalactiae as described thereafter. The capacity of the compounds of the invention to inhibit DltA enzymatic activity was assessed using the DltA assays as described below:
(§2) The dltA gene was amplified from chromosomal DNA of S. aureus, E. faecalis, E. faecium and S. agalactiae and introduced into E. coli BL21 (Invitrogen, Carlsbad, Calif.) following manufacturer's instruction. Bacteria were grown at 37° C. under aerobic conditions and isopropyl-beta-D-thiogalactopyranoside (IPTG) was added to 0.5-1 mM when OD600 of the bacterial culture had reached 0.5. After a further incubation for 3 hours, cells were harvested by centrifugation. Purification of the recombinant DltA protein was performed by affinity chromatography on nickel-nitrilotriacetic acid (Ni-NTA) column following manufacturer's instructions (Qiagen). Fractions containing recombinant DltA protein were adjusted to 50% glycerol and stored at −20° C. until use.
(§3) The binding potency of the inhibitors against DltA enzyme was assessed by IC50 determination in an in vitro DltA activity assay. The assay buffer “AB” contained 50 mM Hepes pH8.0, 10 mM MgCl2, 50 mM KCl, 0.012% Triton-X100, 10 mM DTT and 100 nM Myelin-basic protein. The following components were added in a white polystyrene Costar plate up to a final volume of 30 μL: 3 μL DMSO, or inhibitor dissolved in DMSO and 27 μL DltA enzyme in AB. After 30 min of pre-incubation at room temperature, 30 μL of Substrates mix in AB were added in each well to a final volume of 60 μL. This reaction mixture was then composed of DltA (produced in house from S. aureus, E. faecalis, E. faecium and S. agalactiae), 0.5 mM D-Alanine (Sigma), 0.5-5 μM ATP (Sigma) and 0.05 u/ml inorganic pyrophosphatase (Sigma) in assay buffer. After typically 1-2 hours of incubation at room temperature (conversion rate around 30%), 30 μL of the revelation mix were added to a final volume of 90 μL, including the following constituents at the respective final concentrations: 10000 u/ml luciferase (Sigma), 30 μM D-luciferin (Sigma), 100 μM N-acetylcysteamine (Aldrich). Luminescence intensity was immediately measured on a Fluostar Optima (BMG) (excitation 360 nm, emission 520 nm) and converted into inhibition percentages. For IC50 determinations (Inhibitory Concentration 50%) the inhibitor was added at 6 to 10 different concentrations and the related inhibitions were fitted to a classical Langmuir equilibrium model using XLFIT (IDBS).
(§4) For compounds interfering with the luminescent signal (quenching), the same experiment without DltA enzyme was performed to allow quenching determination and correction.

[2] = molecular target: E. feacium DltA (Enterococcus faecium, UniProt Q3XZT7); test: in vitro DltA activity assay (luminescence), E. faecium DltA; conditions: recombinant DltA, 30 min pre-incubation, 0.5 mM D-Alanine, 0.5-5 μM ATP; read-out: E. feacium DltA IC50
Description: as §1, §2, §3, §4

[3] = molecular target: E. feacalis DltA (Enterococcus faecalis, UniProt Q830N0); test: in vitro DltA activity assay (luminescence), E. faecalis DltA; conditions: recombinant DltA, 30 min pre-incubation, 0.5 mM D-Alanine, 0.5-5 μM ATP; read-out: E. feacalis DltA IC50
Description: as §1, §2, §3, §4

[4] = molecular target: S. Agalactiae DltA (Streptococcus agalactiae serotype III (strain NEM316), UniProt Q8VM67); test: in vitro DltA activity assay (luminescence), S. agalactiae DltA; conditions: recombinant DltA, 30 min pre-incubation, 0.5 mM D-Alanine, 0.5-5 μM ATP; read-out: S. Agalactiae DltA IC50
Description: as §1, §2, §3, §4

E. feacalis DltA, sequence (Q830N0 1-506): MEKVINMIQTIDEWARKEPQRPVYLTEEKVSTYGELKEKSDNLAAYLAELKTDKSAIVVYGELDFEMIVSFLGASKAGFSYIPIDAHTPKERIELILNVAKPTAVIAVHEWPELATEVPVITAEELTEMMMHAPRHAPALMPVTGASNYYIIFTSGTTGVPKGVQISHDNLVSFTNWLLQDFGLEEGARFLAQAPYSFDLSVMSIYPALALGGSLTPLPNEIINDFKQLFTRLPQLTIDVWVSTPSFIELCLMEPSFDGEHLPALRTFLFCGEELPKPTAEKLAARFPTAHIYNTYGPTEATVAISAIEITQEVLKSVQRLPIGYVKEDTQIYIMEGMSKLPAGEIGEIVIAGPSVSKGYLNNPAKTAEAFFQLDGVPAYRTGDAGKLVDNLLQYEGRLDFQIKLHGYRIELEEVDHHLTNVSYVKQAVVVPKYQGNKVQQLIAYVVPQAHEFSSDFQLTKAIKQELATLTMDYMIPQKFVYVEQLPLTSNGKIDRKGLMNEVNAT
E. feacium DltA, sequence (Q3XZT7 1-504): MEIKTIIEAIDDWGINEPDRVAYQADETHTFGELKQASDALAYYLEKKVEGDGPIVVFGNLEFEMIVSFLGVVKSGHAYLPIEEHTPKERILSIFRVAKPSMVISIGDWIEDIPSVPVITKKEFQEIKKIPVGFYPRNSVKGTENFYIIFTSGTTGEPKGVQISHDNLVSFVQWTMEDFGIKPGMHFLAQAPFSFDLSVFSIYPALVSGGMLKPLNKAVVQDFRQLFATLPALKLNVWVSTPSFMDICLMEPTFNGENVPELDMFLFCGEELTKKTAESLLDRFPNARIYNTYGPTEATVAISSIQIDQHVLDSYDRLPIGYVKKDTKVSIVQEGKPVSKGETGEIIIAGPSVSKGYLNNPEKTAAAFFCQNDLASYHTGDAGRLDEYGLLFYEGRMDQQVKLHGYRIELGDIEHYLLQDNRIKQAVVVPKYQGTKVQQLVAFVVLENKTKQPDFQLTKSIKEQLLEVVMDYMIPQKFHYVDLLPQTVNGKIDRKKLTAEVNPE

Work on `NC(=O)c1c(N2CCC(CCO)C2)cc(-c2ccc3c(c2)ncn3C2CCCCC2)c2nc[nH]c12` (centres unmarked) [Example 77, 1′-Cyclohexyl-6-[3-(2-hydroxy-ethyl)-pyrrolidin-1-yl]-1H,1′H-[4,5′]bibenzimidazolyl-7-carboxamide] yielded an IC50 [1] of 77 nM, an IC50 [2] of 110 nM and an IC50 [3] of 41 nM. For the same molecule, the IC50 [4] was 1300 nM.

In the case of `N#Cc1c(NCCO)cc(-c2ccc3c(c2)ncn3C2CCCCC2)c2nc[nH]c12` [Example 78], the IC50 [1] is reported as 210 nM, the IC50 [2] is reported as 590 nM and the IC50 [3] is reported as 170 nM. For the same molecule, the IC50 [4] was 5400 nM.

`CN(CCO)c1cc(-c2ccc3c(c2)ncn3C2CCCCC2)c2nc[nH]c2c1C#N` [Example 92] showed an IC50 [1] of 190 nM, an IC50 [2] of 600 nM and an IC50 [3] of 240 nM. The IC50 [4] was 8200 nM.

In the case of `CN(C)CCOc1cc(-c2ccc3c(c2)ncn3C2CCCCC2)c2nc[nH]c2c1C#N` [Example 104], the IC50 [1] is reported as 53 nM, the IC50 [2] is reported as 390 nM and the IC50 [3] is reported as 84 nM. For the same molecule, the IC50 [4] was 2400 nM.

In the case of `CN1CCN(c2cc(-c3ccc4c(c3)ncn4C3CCCCC3)c3nc[nH]c3c2C(N)=O)CC1` [Example 106, 1′-Cyclohexyl-6-(4-methyl-piperazin-1-yl)-1H,1′H-[4,5′]bibenzimidazolyl-7-carboxamide], the IC50 [1] is reported as 34 nM, the IC50 [2] is reported as 76 nM and the IC50 [3] is reported as 18 nM. The IC50 [4] was 500 nM.

`O=C(NO)c1c(F)cc(-c2ccc3c(c2)ncn3C2CCCCC2)c2nc[nH]c12` [Example 111, 1′-Cyclohexyl-6-fluoro-1H,1′H-[4,5′]bibenzimidazolyl-N-hydroxy-7-carboxamide] showed an IC50 [1] of 280 nM, an IC50 [2] of 1100 nM and an IC50 [3] of 610 nM. For the same molecule, the IC50 [4] was 11000 nM.

`CN(CCO)c1cc(-c2ccc3c(c2)ncn3C2CCCCC2)c2nc[nH]c2c1C(N)=O` [Example 117, 1′-Cyclohexyl-6-[(2-hydroxy-ethyl)-methyl-amino]-1H,1′H-[4,5′]bibenzimidazolyl-7-carboxamide] gave an IC50 [1] of 23 nM, an IC50 [2] of 27 nM and an IC50 [3] of 16 nM. For the same molecule, the IC50 [4] was 560 nM.

Work on `CN(C)CCCN(C)c1cc(-c2ccc3c(c2)ncn3C2CCCCC2)c2nc[nH]c2c1C(N)=O` [Example 122, 1′-Cyclohexyl-6-[(3-dimethylamino-propyl)-methyl-amino]-1H,1′H-[4,5′]bibenzimidazolyl-7-carboxamide] yielded an IC50 [1] of 59 nM, an IC50 [2] of 82 nM and an IC50 [3] of 31 nM. For the same molecule, the IC50 [4] was 1800 nM.

`CN(C)CCN(C)c1cc(-c2ccc3c(c2)ncn3C2CCCOC2)c2nc[nH]c2c1C(N)=O` (centres unmarked) [Example 123, 6-[(2-dimethylamino-ethyl)-methyl-amino]-1′-(tetrahydro-pyran-3-yl)-1H,1′H-[4,5′]bibenzimidazolyl-7-carboxamide] was tested, and the IC50 [1] was 6.9 nM, the IC50 [2] was 41 nM and the IC50 [3] was 8.2 nM. The IC50 [4] was 970 nM.

For `CN(C)CC1CCCN1c1cc(-c2ccc3c(c2)ncn3C2CCCCC2)c2nc[nH]c2c1C(N)=O` (centres unmarked) [Example 126, 1′-Cyclohexyl-6-(2-dimethylaminomethyl-pyrrolidin-1-yl)-1H,1′H-[4,5′]bibenzimidazolyl-7-carboxamide], the IC50 [1] was 57 nM, the IC50 [2] was 240 nM and the IC50 [3] was 56 nM. For the same molecule, the IC50 [4] was 1800 nM.

For `CN(CCN1CCCC1)c1cc(-c2ccc3c(c2)ncn3C2CCCCC2)c2nc[nH]c2c1C(N)=O` [Example 127, 1′-Cyclohexyl-6-[methyl-(2-pyrrolidin-1-yl-ethyl)-amino]-1H,1′H-[4,5′]bibenzimidazolyl-7-carboxamide], the IC50 [1] was 25 nM, the IC50 [2] was 18 nM and the IC50 [3] was 2.9 nM. It also gave an IC50 [4] of 140 nM.

Work on `CCN(CC)CCN(C)c1cc(-c2ccc3c(c2)ncn3C2CCCCC2)c2nc[nH]c2c1C(N)=O` [Example 130, 1′-Cyclohexyl-6-[(2-diethylamino-ethyl)-methyl-amino]-1H,1′H-[4,5′]bibenzimidazolyl-7-carboxamide] yielded an IC50 [1] of 73 nM, an IC50 [2] of 170 nM and an IC50 [3] of 36 nM. The IC50 [4] was 790 nM.

In the case of `CN(C)CCN(CCO)c1cc(-c2ccc3c(c2)ncn3C2CCCCC2)c2nc[nH]c2c1C(N)=O` [Example 131, 1′-Cyclohexyl-6-[(2-dimethylamino-ethyl)-(2-hydroxy-ethyl)-amino]-1H,1′H-[4,5′]bibenzimidazolyl-7-carboxamide], the IC50 [1] is reported as 75 nM, the IC50 [2] is reported as 230 nM and the IC50 [3] is reported as 40 nM. The IC50 [4] was 1900 nM.

For `CN(C)CCN(C)c1cc(-c2ccc3scnc3c2)c2nc[nH]c2c1C(N)=O` [Example 134, 7-Benzothiazol-5-yl-5-[(2-dimethylamino-ethyl)-methyl-amino]-3H-benzimidazole-4-carboxamide], the IC50 [1] was 250 nM, the IC50 [2] was 120 nM and the IC50 [3] was 24 nM. The IC50 [4] was 1100 nM.

Molecule `COCCn1cnc2cc(-c3cc(N(C)CCN(C)C)c(C(N)=O)c4[nH]cnc34)ccc21` [Example 135] has an IC50 [1] of 17 nM, an IC50 [2] of 45 nM and an IC50 [3] of 69 nM. The IC50 [4] was 840 nM.

Work on `CN(C)CCN(C)c1cc(-c2cnc3c(c2)CCCO3)c2nc[nH]c2c1C(N)=O` [Example 144, 7-(3,4-Dihydro-2H-pyrano[2,3-b]pyridin-6-yl)-5-[(2-dimethylamino-ethyl)-methyl-amino]-3H-benzimidazole-4-carboxamide] yielded an IC50 [1] of 39 nM, an IC50 [2] of 120 nM and an IC50 [3] of 17 nM. The IC50 [4] was 630 nM.

`CCn1cnc2cc(-c3cc(N(C)CCN(C)C)c(C(N)=O)c4[nH]cnc34)cc(OC)c21` [Example 152] showed an IC50 [1] of 13 nM, an IC50 [2] of 58 nM and an IC50 [3] of 16 nM. The IC50 [4] was 2200 nM.

`CN(C)CCN(C)c1cc(-c2ccc3c(c2)ncn3C2CCC(F)(F)CC2)c2nc[nH]c2c1C(N)=O` [Example 161, 1′-(4,4-Difluoro-cyclohexyl)-6-[(2-dimethylamino-ethyl)-methyl-amino]-1H,1′H-[4,5′]bibenzimidazolyl-7-carboxamide] gave an IC50 [1] of 13 nM, an IC50 [2] of 69 nM and an IC50 [3] of 8.1 nM. It also gave an IC50 [4] of 1200 nM.

`CN(C)CCN(C)c1cc(-c2ccc3c(c2)ncn3CC(F)F)c2nc[nH]c2c1C(N)=O` [Example 163, 1′-(2,2-Difluoro-ethyl)-6-[(2-dimethylamino-ethyl)-methyl-amino]-1H,1′H-[4,5′]bibenzimidazolyl-7-carboxamide] gave an IC50 [1] of 14 nM, an IC50 [2] of 34 nM and an IC50 [3] of 5.4 nM. The IC50 [4] was 780 nM.

With `CN(C)CCN(C)c1cc(-c2cc3c4c(c2)ncn4CCO3)c2nc[nH]c2c1C(N)=O` [Example 165, 7-(3,4-Dihydro-5-oxa-1.2a-diaza-acenaphthylen-7-yl)-5-[(2-dimethylamino-ethyl)-methyl-amino]-3H-benzimidazole-4-carboxamide] the IC50 [1] was 29 nM, the IC50 [2] was 90 nM and the IC50 [3] was 26 nM. It also gave an IC50 [4] of 2200 nM.

In the case of `CN(CCO)c1cc(-c2ccc3c(c2)ncn3[C@@H]2CCCC[C@H]2F)c2nc[nH]c2c1C(N)=O` [Example 171], the IC50 [1] is reported as 15 nM, the IC50 [2] is reported as 40 nM and the IC50 [3] is reported as 6.7 nM. For the same molecule, the IC50 [4] was 350 nM.

`COCCN(C)c1cc(-c2ccc3c(c2)ncn3C2CCCCC2)c2nc[nH]c2c1C(N)=O` [Example 176, 1′-Cyclohexyl-6-[(2-methoxy-ethyl)-methyl-amino]-1H,1′H-[4,5′]bibenzimidazolyl-7-carboxamide] showed an IC50 [1] of 940 nM, an IC50 [2] of 190 nM and an IC50 [3] of 35 nM. The IC50 [4] was 2300 nM.

Molecule `CN(CCO)c1cc(-c2cnc3c(c2)CCCO3)c2nc[nH]c2c1C(N)=O` [Example 177, 7-(3,4-Dihydro-2H-pyrano[2,3-b]pyridin-6-yl)-5-[(2-hydroxy-ethyl)-methyl-amino]-3H-benzimidazole-4-carboxamide] has an IC50 [1] of 170 nM, an IC50 [2] of 320 nM and an IC50 [3] of 45 nM. For the same molecule, the IC50 [4] was 1100 nM.
